In US20040121962A1, “Prodrugs of excitatory amino acids” (priority 2001, published 2004):

Legend:
human mGluR3 = target: T1, human mGluR3 (Homo sapiens, UniProt Q14832); assay: Displacement of [3H]LY341495 binding to cell membranes, human mGluR3; conditions: read-out: Displacement of 3H-LY341495 binding (Ki, nM) (mean ± S.E., N = 3)
T1 construct: expressed in transfected cells
Description: (§1) To study the ability to affect receptor binding of compounds of the present invention in comparison to LY354740, displacement of a high affinity mGluR2 antagonist radioligand [^3H]LY341495 to cell membranes from human mGluR2, human mGluR3, and native rat brain tissues was determined.

[1] = test system: fear-potentiated startle (mGlu2/3 receptor linked); assay: Rat fear-potentiated startle anxiety model; type: in vivo; conditions: for MED (1 hour pre-treatement): fed rats, oral, 1 hour pre-treatment
Excerpt: This model was specifically chosen, as it is highly sensitive to mGlu2/3 agonists such as LY354740 and compounds of the present invention. (See, Helton […]., Monn […]., and Kallman M. J., Anxiolytic and side-effect profile of LY354740: A potent, high selective, orally active agonist for group II metabotropic glutamate receptors, J. Pharmacol. Exp. Ther. 284: 651-660 (1998)). To verify that the actions of a compound of formula I in this model were mGlu2/3 receptor mediated, as has been shown previously for LY354740 (See, […]., Ornstein P. L., Monn J. A., and Schoepp D. D., Actions of mGlu receptor agonists on fear-conditioning versus fear-expression in rats, Neuropharmacology, 38:[…] (#144) (1999)), the ability of LY341495 (an mGlu2/3 receptor antagonist) (See, Kingston A. E., Ornstein P. L., Wright R. A., Johnson […]., Burnett […]., Wu S., and Schoepp D. […] As a positive control in each experiment, diazepam (0.6 mg/kg i.p.) was used. All experiments were performed in fed rats. In the fear potentiated startle model, animals are exposed to a neutral stimulus such as light (conditioned stimulus) with an aversive stimulus such as a shock (unconditioned stimulus). Following conditioning, when the animals are presented with a loud acoustic stimulus, larger startle responses are elicited when the startle stimulus is preceded by light. Male Long Evans rats (180-400 g) or male NIH Swiss mice (18-35 g) were obtained from Harlan Sprague-Dawley, Cumberland, Ind., USA and acclimated at least 3 days before testing. Animals were housed at 23±2° C. (relative humidity 30% to 70%) and given Purina Certified Rodent Chow and water ad libitum. The photoperiod was 12 hours of light and 12 hours of dark, with dark onset at approximately 1800 hours. Test compounds were dissolved in a vehicle of purified water and neutralized with 5 N NaOH to a pH of 7-8 when applicable. Diazepam (Sigma Chemical Company, St. […] Control animals received the respective vehicle. […]

human mGluR2 = target: T2, human mGluR2 (Homo sapiens, UniProt Q14416); assay: Displacement of [3H]LY341495 binding to cell membranes, human mGluR2; conditions: read-out: Displacement of 3H-LY341495 binding (Ki, nM) (mean ± S.E., N = 3)
T2 construct: expressed in transfected cells
T2 sequence (Q14416 19-872): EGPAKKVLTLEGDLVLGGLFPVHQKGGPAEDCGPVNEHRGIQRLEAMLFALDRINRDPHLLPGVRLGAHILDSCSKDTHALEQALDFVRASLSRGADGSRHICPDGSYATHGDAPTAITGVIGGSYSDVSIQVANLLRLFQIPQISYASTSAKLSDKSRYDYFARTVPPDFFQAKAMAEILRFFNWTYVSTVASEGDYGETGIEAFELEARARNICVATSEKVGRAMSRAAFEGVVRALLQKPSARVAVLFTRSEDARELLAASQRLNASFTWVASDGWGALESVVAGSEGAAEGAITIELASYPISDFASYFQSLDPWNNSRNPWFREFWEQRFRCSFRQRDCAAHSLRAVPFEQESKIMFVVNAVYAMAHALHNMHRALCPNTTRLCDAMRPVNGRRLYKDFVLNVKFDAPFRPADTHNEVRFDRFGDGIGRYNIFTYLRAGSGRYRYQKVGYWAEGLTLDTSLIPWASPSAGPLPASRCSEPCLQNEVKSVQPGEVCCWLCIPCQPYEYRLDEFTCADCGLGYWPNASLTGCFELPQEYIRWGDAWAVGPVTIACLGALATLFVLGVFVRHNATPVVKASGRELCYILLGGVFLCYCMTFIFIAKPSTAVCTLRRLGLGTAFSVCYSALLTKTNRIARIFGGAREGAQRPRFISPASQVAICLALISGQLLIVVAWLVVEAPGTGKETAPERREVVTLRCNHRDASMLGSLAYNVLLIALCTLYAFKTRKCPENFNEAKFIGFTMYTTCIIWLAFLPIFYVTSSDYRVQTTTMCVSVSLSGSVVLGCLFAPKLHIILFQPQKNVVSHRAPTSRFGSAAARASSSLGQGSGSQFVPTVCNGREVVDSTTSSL
Description: as §1

[2] = target: mGlu2/3 receptors in rat forebrain membranes; conditions: read-out: Displacement of 3H-LY341495 binding (Ki, nM) (mean ± S.E., N = 3)
Description: as §1

T1 sequence (Q14832 23-879): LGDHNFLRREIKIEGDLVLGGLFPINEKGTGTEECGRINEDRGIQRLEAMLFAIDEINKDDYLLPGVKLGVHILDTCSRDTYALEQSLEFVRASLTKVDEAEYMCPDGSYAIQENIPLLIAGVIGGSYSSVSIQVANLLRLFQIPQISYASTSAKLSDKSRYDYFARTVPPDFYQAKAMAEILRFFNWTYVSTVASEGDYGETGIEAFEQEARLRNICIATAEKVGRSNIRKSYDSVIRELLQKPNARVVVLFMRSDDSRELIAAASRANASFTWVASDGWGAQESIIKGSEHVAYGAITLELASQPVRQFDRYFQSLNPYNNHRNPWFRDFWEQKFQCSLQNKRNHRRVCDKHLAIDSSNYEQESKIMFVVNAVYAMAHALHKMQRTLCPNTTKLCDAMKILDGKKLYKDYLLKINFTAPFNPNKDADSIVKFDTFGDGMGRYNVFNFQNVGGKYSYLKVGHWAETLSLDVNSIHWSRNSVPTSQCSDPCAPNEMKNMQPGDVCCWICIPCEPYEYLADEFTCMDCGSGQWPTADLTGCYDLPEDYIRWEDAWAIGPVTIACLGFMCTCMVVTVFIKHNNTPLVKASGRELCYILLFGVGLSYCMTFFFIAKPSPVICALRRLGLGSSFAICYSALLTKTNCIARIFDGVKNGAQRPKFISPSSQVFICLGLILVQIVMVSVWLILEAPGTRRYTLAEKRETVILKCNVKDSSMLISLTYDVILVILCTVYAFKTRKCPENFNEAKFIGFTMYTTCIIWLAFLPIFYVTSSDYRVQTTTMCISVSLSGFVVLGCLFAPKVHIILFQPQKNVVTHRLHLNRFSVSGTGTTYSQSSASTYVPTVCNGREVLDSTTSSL

| Ki (human mGluR3) [nM] | Ki (human mGluR2) [nM] | Ki [2] [nM] | SMILES | MED (1 hour pre-treatement) [1] [mg/kg p.o.] | oral potency in the treatment of anxiety ([1]; preclinical studies) |
| --- | --- | --- | --- | --- | --- |
| > 10000 | > 10000 |  | C[C@H](N)C(=O)N[C@@]1(C(=O)O)CC[C@H]2[C@H](C(=O)O)[C@H]21 [Formula I, (1S,2S,5R,6S)-2-[(2′S)-(2′-Amino)-propionyl]amino-bicyclo[3.1.0]hexane-2,6-dicarboxylic acid] | 0.01 |  |
| 126 ± 4.8 | 84.7 ± 11.1 | 80 ± 7.3 | NC1(C(=O)O)CCC2C(C(=O)O)C21 (single isomer, unassigned; (+)) [LY354740, (+)-2-aminobicyclo[3.1.0]hexane-2,6-dicarboxylic acid] | 3.0 |  |
|  |  |  | C[C@H](N)C(=O)N[C@@]1(C(=O)O)CC[C@H]2[C@H](C(=O)O)[C@H]21.Cl [Example 3, (1S,2S,5R,6S)-2-[(2′S)-(2′-Amino)-propionyl]amino-bicyclo[3.1.0]hexane-2,6-dicarboxylic acid hydrochloride] |  | greatly enhanced oral potency |
